Results taken from patent US20250018029A1, “METHODS TO ALTER THE TUMOR MICROENVIRONMENT FOR EFFECTIVE CANCER IMMUNOTHERAPY” (PDS BIOTECHNOLOGY CORPORATION, priority 2016, published 2025).
No end group written: not given here. *: point of attachment. Palmitoyl = CCCCCCCCCCCCCCCC(=O)*

Legend:
[1] = tested on: Bone marrow derived dendritic cells (BMDC); assay: DQ-OVA uptake and processing by bone marrow derived dendritic cells (flow cytometry); assay type: cell-based, mouse; settings: for uptake and processing of DQ-OVA by DC (fluorescence): 37° C., versus DQ-OVA in media alone
Method: FIG. 1 provides a graph showing that DOTAP enhancement of antigen processing is specific for dendritic cells. Bone marrow derived dendritic cells were incubated with DQ-OVA in the presence of various concentrations of DOTAP as shown. In addition, a mouse epithelial cell line, TC1, was treated in an identical fashion.
FIG. 2 provides fluorescence readings for receptor mediated uptake. R-DOTAP nanoparticles, but not MPL stimulate uptake and processing by DC within 10 minutes. Mouse bone marrow DC were incubated in the presence of fluorescent DQ-OVA for one hour at either 37° C. or 4° C./azide in the presence of 25 uM DOTAP nanoparticles, 10 ug/ml MPL or media alone, and analyzed by flow cytometry. On the presented density plot, the y-axis represents the amount of green fluorescence which results from uptake and processing of the protein, while the x-axis represents the amount of red fluorescence resulting from concentration in endosomal vesicles.
To determine the effects of cationic lipids on antigen uptake and processing by dendritic cells, a fluorescent ovalbumin protein called DQ-OVA was used. DQ-OVA is non-fluorescent when intact, but emits both red and green fluorescence when the protein is degraded. Dendritic cells were grown from mouse bone marrow by culturing for 8 days in GMCSF+IL-4 (hereafter referred to as BMDC). BMDC were incubated at 37° C. or 4° C. for 1 hour with DQ-OVA alone, or DQ-OVA mixed with different concentrations of the cationic lipid R-DOTAP. The cells were then washed, fixed, and stained with fluorescent antibodies to CD11c, a marker for dendritic cells. Cells were then analyzed on an LSRII flow cytometer in both red and green fluorescent channels.
To determine whether non-cationic lipid adjuvants could mediate the same effect as DOTAP, BMDC were incubated with DQ-OVA in media alone or with DOTAP as described for FIG. 1. In addition, BMDC were incubated under identical conditions with the potent lipid adjuvant […] (MPL).

[2] = tested on: OT1 splenocytes (TCR transgenic T cells specific for SIINFEKL); assay: Cross-presentation of OVA by DC to MHC class I restricted OT-1 T cells (3H-thymidine uptake); assay type: cell-based, mouse; settings: whole OVA protein, 25 uM lipid, 37° C., versus OVA without cationic lipid
Method: FIG. 3: R-DOTAP enhancement of antigen processing results in enhancement of cross-presentation to MHC class I restricted T cells. Bone marrow derived DC were incubated in the presence of various concentrations of whole OVA protein and 25 uM DOTAP or DOTMA for 30 min at 37° C. or 4° C.
In order to verify that the cationic lipid facilitated uptake of antigen translates into enhanced antigen presentation on MHC class I (cross presentation), T cells from a TCR transgenic mouse (OT-1) were utilized in which all T cells are specific for an internal peptide of OVA. These T-cells will only proliferate if presented with DCs which have processed OVA and presented an OVA peptide on MHC class I molecules. Thus, this represents a stringent assay for cross-presentation. BMDC were incubated with different concentrations of the whole OVA protein in the presence or absence of two cationic lipids, either DOTAP or DOTMA for 1 hour at 37° C. The DCs were then washed, fixed and added to the OVA peptide specific T-cells. […] This response was dose dependent with respect to the OVA concentration, and was even apparent when DC were incubated with OVA at 4° C.

[3] = tested on: CFSE labeled lymphocytes in popliteal LN; assay: Lymph node homing of CFSE labeled adoptively transferred spleen cells, with or without pertussis toxin; assay type: in vivo, B6 mice; settings: after 16 h
Excerpt: The primary objective of the current experiment was to understand if T-cell infiltration induced by R-DOTAP is chemokine dependent. We utilized 5 mice to perform the study, and visualized the homing of CFSE labeled adoptively transferred cells. The study included a population of cells that had been treated in vitro with pertussis toxin to inactivate chemokine receptors. Pertussis toxin-treated and untreated cells were labeled with two different concentrations of CFSE so that they could be distinguished by flow cytometry.
Spleen cells were prepared from a single B6 mouse and divided in half. Half of the cells were treated with Pertussis toxin 100 ng/ml for 1 hour at 37° C. and washed. The two cell populations were then labeled with CFSE at two different concentrations so they could be distinguished by flow cytometry, and mixed together. The mix (10e7 cells) was injected i.v. into the tail vein of 5 B6 mice. The mice were then anesthetized and injected in the footpad with either sucrose (right footpad) or R-DOTAP (left footpad, 50 ul, 600 nmoles).
After 16 h, the mice were sacrificed and the popliteal LN and spleens harvested. The total cells recovered from left and right nodes from each mouse were counted.

[4] = tested on: T regulatory cells (CD45+CD3+CD4+CD25+Foxp3+) in tumor; assay: Regulatory T cell population within TC-1 tumors (flow cytometry); assay type: in vivo, C57 mice; settings: Day 19, within 1 week of vaccination (Day 12)
Method: FIG. 6: provides a graph showing that R-DOTAP and R-DOTAP+antigen uniquely reduce the population of regulatory T cells within the tumors after vaccination. 1×10^5 cells implanted subcutaneously on the right side of the abdomen of female B6 mice on day 0 and were vaccinated on day 12 and on day 19 post Tumor implant. T regulatory cells (CD45+CD3+CD4+CD25+Foxp3+) cells infiltrated into tumors on day 19. The reduction is calculated as the ratio of total T reg cells in tumor/average T reg cell in tumor and normalized to T reg cells in naïve mouse. Data represents mean±SEM of 4-5 mice in each group. * Statistically significant R-DOTAP+antigen compared to all other groups (other than R-DOTAP only). P<0.01.
C57 mice were divided into the following groups of 8 mice per group: • Group 1: R-DOTAP+KF18 (SEQ ID NO: 2) • Group 2: GM-CSF+KF18 (SEQ ID NO: 2) • Group 3: R-DOTAP • Group 4: GM-CSF • Group 5: KF18 (SEQ ID NO: 2) • Group 6: Naïve mice (tumor bearing and untreated). • 1×10E^5 TC-1 tumor cells were injected into the flank of the mice on day 0. The various formulations were administered on Days 12 and 19 after tumor implantation. […]

[5] = tested on: HPV16-positive TC-1 tumors; assay: Regression of established TC-1 tumors, R- versus S-DOTAP, administered Day 6; assay type: in vivo, mice; settings: 1×10E^5 TC-1 cells day 0, administered on Day 6
Method: Effect of R-DOTAP (solid squares), R-DOTAP/HPV16-E7 (clear squares) and S-DOTAP/HPV16-E7 (solid circles) vaccination on regression of established HPV16-positive TC-1 tumors. The HPV16 E7 peptide used in the vaccine (SEQ ID NO: 2) is labelled KF18. Tumor volumes were measured using calipers.
R-DOTAP only, R-DOTAP/HPV16 E7 (SEQ ID NO: 2) and S-DOTAP/HPV16 E7 (SEQ ID NO: 2) were administered on Day 6 after tumor implantation.

[6] = tested on: T-cells and total lymphocytes in popliteal lymph nodes; assay: T-cell and lymphocyte infiltration into draining lymph nodes after foot pad injection; assay type: in vivo, mice
Excerpt: FIG. 10 provides a graph showing that R-DOTAP injection induces the migration of lymphocytes including T-lymphocytes into the draining lymph nodes. […] R-DOTAP injection is represented by striped bars, and the control is represented by shaded bars.
To better understand the ability of T-cell activating cationic lipids such as R-DOTAP to promote the induction of the effector CD8+ T-cells, which are also critical in altering the tumor's microenvironment, the impact of R-DOTAP vaccination on B and T-cells was studied. 12 mM R-DOTAP or sucrose as control were injected into the right and left foot pad respectively of mice and the influx of T-cells and total lymphocytes into the draining lymph nodes were quantified by flow cytometry. In this experiment, 15 hours after vaccination the popliteal lymph nodes were removed and analysis performed. […] Five mice were used per study.

[7] = tested on: HPV16-specific CD8+ T-cells; assay: HPV16-specific CD8+ T-cell induction after vaccination, ELISPOT of splenocytes; assay type: in vivo, C57 black mice; settings: given with KF18 HPV peptide, vaccinated Day 0 and Day 7, splenocytes Day 14, stimulated with RAHYNIVTF
Excerpt: Effect of HPV16-E7, R-DOTAP/HPV16-E7, S-DOTAP/HPV16-E7 and Alum/MPL/HPV16-E7 vaccination on HPV16-specific CD8+ T-cell induction by ELISpot. The HPV16 E7 peptide used in the vaccine (SEQ ID NO: 2) is labelled KF18.
C57 black mice were vaccinated with various formulations: • Group 1: KF18 HPV peptide • Group 2: KF18 HPV peptide+R-DOTAP liposomes • Group 3: KF18 HPV peptide+S-DOTAP liposomes • Group 4: KF18 peptide+MPL/Alum adjuvant • *For each of the groups above, the KF18 HPV peptide corresponds to Palmitoyl-KSS-[…] (SEQ ID NO: 2)
5 mice per group were injected with the various formulations. The mice were vaccinated on Day 0 and Day 7 and sacrificed on Day 14. The splenocytes were removed and ELISPOT studies performed. The splenocytes were stimulated with the peptide […] (SEQ ID NO: 3), the HPV16 CD8+ T-cell epitope peptide recognized by the C57 mice.

HPV-positive TC-1 tumors = assay: Regression of established TC-1 tumors, vaccination Days 12 and 19; assay type: in vivo, C57 mice
Method: Tumors were implanted on Day 0 and the mice vaccinated on Days 12 and 19. Tumor volumes were measured using calipers. The naïve mice group are tumor bearing mice that remained untreated. […] P<0.01.
C57 mice were divided into the following groups of 8 mice per group: • Group 1: R-DOTAP+KF18 (SEQ ID NO: 2) • Group 2: GM-CSF+KF18 (SEQ ID NO: 2) • Group 3: R-DOTAP • Group 4: GM-CSF • Group 5: KF18 (SEQ ID NO: 2) • Group 6: Naïve mice (tumor bearing and untreated). • 1×10E^5 TC-1 tumor cells were injected into the flank of the mice on day 0. The various formulations were administered on Days 12 and 19 after tumor implantation.
The third group of animals who were treated with either R-DOTAP alone or GM-CSF alone without antigen, or left untreated (Treg/CD8+ ratio >30) had tumor volumes of 300-700 mm^3.

CCCCCCCC/C=C\CCCCCCCC(=O)OCC(C[N+](C)(C)C)OC(=O)CCCCCCC/C=C\CCCCCCCC (stereo not shown) [DOTAP, 1,2-dioleoyl-3-trimethylammonium propane]
uptake of DQ-OVA by DC at 4° C. ([1]; BMDC with DQ-OVA, 1 hour, 4° C.): Significant uptake | uptake and processing of DQ-OVA by DC (fluorescence) ([1]; BMDC with DQ-OVA, 1 hour): significant increase of fluorescence | concentration showing the greatest effect on DQ-OVA uptake ([1]; concentration dependent effect in BMDC): 50 µM | cross-presentation of OVA antigen by DC to CD8+ T cells [2]: much more efficiently

CCCCCCCC/C=C\CCCCCCCC(=O)OCC(C[N+](C)(C)C)OC(=O)CCCCCCC/C=C\CCCCCCCC (stereo not shown) [R-DOTAP, 1,2-dioleoyl-3-trimethylammonium propane]
time within which uptake and processing by DC is stimulated ([1]; 25 uM DOTAP nanoparticles, FIG. 2 legend): ≤ 10 min | uptake and processing of DQ-OVA by DC (fluorescence) ([1]; BMDC with DQ-OVA, 1 hour): greatly enhanced | infiltration of pertussis toxin treated CFSE labeled cells into the lymph node ([3]; cells treated with Pertussis toxin 100 ng/ml): did not occur | infiltration of transferred CFSE labeled lymphocytes into the lymph node ([3]; untreated cells, footpad 50 ul, 600 nmoles): infiltrated the lymph node | reduction in the Treg population within the tumors [4]: about 20% | anti-tumor effect on established TC-1 tumors [5]: lack of regression or inhibition of growth | infiltration of T-cells into the draining lymph node ([6]; 12 mM, foot pad, 15 hours after vaccination, sucrose as control): significant infiltration of T-cells into the lymph node | lymphocyte infiltration into the lymph nodes over time ([6]; 5 hours, 16 hours, 3 days and 4 days): increase over the 4-day period | HPV-specific CD8+ T-cell response (ELISPOT) [7]: effective in inducing strong HPV-specific CD8+ T-cell responses

CCCCCCCC/C=C\CCCCCCCC(=O)OCC(C[N+](C)(C)C)OC(=O)CCCCCCC/C=C\CCCCCCCC (stereo not shown) [S-DOTAP, 1,2-dioleoyl-3-trimethylammonium propane]
uptake and processing of DQ-OVA by DC (fluorescence) ([1]; BMDC with DQ-OVA, 1 hour): no difference | HPV-specific CD8+ T-cell response (ELISPOT) [7]: did not result in an enhanced CD8+ T-cell response beyond what was seen with the peptide alone

Monophorphoryl lipid-A [MPL, reference compound]
uptake and processing of DQ-OVA by DC (fluorescence) ([1]; BMDC with DQ-OVA, 1 hour): no such enhancement | HPV-specific CD8+ T-cell response (ELISPOT) [7]: significantly lower CD8+ T-cell response compared to R-DOTAP

Palmitoyl-KSS-GQAEPDRAHYNIVTF (Palmitoyl-KSSGQAEPDRAHYNIVTF) [KF18]
tumor volume (HPV-positive TC-1 tumors; vaccinated Days 12 and 19, Day 26): about 200 mm^3 | tumor regression / elimination (HPV-positive TC-1 tumors; vaccinated Days 12 and 19, by Day 26): did not induce any tumor regression but rather inhibited tumor growth
